Consider nine compounds from PubChem BioAssay (NCI).

Some test systems named below: HCT-116 colon; HS 578T breast; LOX IMVI melanoma; M14 melanoma; MALME-3M melanoma; SK-MEL-5 melanoma; SNB-19 CNS; UACC-257 melanoma.
What all share (assay): DTP human tumour cell line panel, 48 h

Each structure is given as a SMILES string.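 Five compound concentrations were applied to cells in 96-well plates for 48 hours; endpoints were derived by simple linear interpolation of the resulting dose-response curve. Here, GI50 denotes the concentration required for 50% inhibition of growth. At the TGI there is no net growth.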

As for `O=C(Nc1cccc2ccccc12)c1cc2ccccc2cc1O`, the GI50 in the experiment with HCT-116 colon was 2.85 µM; in the experiment with HS 578T breast it was 1.74 µM; in the experiment on LOX IMVI melanoma, 2.72 µM; in the experiment on M14 melanoma, 3.14 µM; in the experiment with MALME-3M melanoma it was 0.562 µM; in the experiment with SK-MEL-5 melanoma, 1.57 µM. Moreover, the GI50 is 3.17 µM in the experiment with SNB-19 CNS and 1.6 µM in the experiment with UACC-257 melanoma. Further, the TGI was determined as 12 µM with HCT-116 colon; 6.43 µM in the experiment with HS 578T breast; 12.2 µM in the experiment with LOX IMVI melanoma; 20.4 µM in the experiment on M14 melanoma; 3.9 µM with MALME-3M melanoma; 3.69 µM with SK-MEL-5 melanoma. Moreover, the values for the TGI in the experiment on SNB-19 CNS and in the experiment on UACC-257 melanoma were greater than 100 µM and 5.03 µM, respectively.

Consider `CCNCCNc1cc(C2CCCC2)c(C#N)c2nc3ccccc3n12`, for which the GI50 was 1.95 µM in the experiment with HCT-116 colon; 3.23 µM in the experiment on HS 578T breast; 1.76 µM with LOX IMVI melanoma; 2.06 µM with M14 melanoma; 1.73 µM in the experiment on MALME-3M melanoma; 1.75 µM in the experiment with SK-MEL-5 melanoma. In addition, the GI50 in the experiment on SNB-19 CNS is 6.26 µM; with UACC-257 melanoma, 2.58 µM. Moreover, the TGI in the experiment with HCT-116 colon was 3.89 µM; with HS 578T breast, 10.4 µM; in the experiment with LOX IMVI melanoma, 3.3 µM; in the experiment on M14 melanoma, 4.08 µM; in the experiment with MALME-3M melanoma, 3.45 µM; in the experiment on SK-MEL-5 melanoma, 3.31 µM. For the same compound, the values for the concentration for total growth inhibition (TGI) in the experiment on SNB-19 CNS and with UACC-257 melanoma were 21.1 µM and 4.74 µM, respectively.

For `O=C(Nc1ncc(Cc2ccc(Cl)cc2)s1)c1ccc2c(c1)OCCO2`, the GI50 was 0.0419 µM in the experiment with HCT-116 colon; 0.0422 µM in the experiment with HS 578T breast; 0.0742 µM with LOX IMVI melanoma; 0.0409 µM in the experiment with M14 melanoma; 0.059 µM in the experiment on MALME-3M melanoma; 0.0539 µM with SK-MEL-5 melanoma. In addition, the GI50 was 0.08 µM with SNB-19 CNS and 5.8 µM in the experiment on UACC-257 melanoma. Further, the TGI in the experiment with HCT-116 colon is greater than 100 µM; with HS 578T breast, 8.65 µM; in the experiment on LOX IMVI melanoma, greater than 100 µM; in the experiment with M14 melanoma, 75.3 µM; in the experiment with MALME-3M melanoma it was greater than 86.5 µM; in the experiment on SK-MEL-5 melanoma, 1.42 µM. The TGI is greater than 92.4 µM with SNB-19 CNS and greater than 100 µM with UACC-257 melanoma.

As for `COc1cc2c3c(n(CCCN4CCOCC4)c(=O)c2cc1OC)-c1cc2c(cc1C3=O)OCO2`, the GI50 is 1.8 µM in the experiment on HCT-116 colon; 71.3 µM in the experiment with HS 578T breast; 0.9 µM in the experiment with M14 melanoma; 6.6 µM in the experiment on MALME-3M melanoma; 1.34 µM in the experiment on SK-MEL-5 melanoma; greater than 38.6 µM with SNB-19 CNS. Moreover, the GI50 in the experiment with UACC-257 melanoma was greater than 51.5 µM. For the same compound, the TGI was 17.4 µM with HCT-116 colon; greater than 100 µM with HS 578T breast; greater than 35 µM in the experiment with LOX IMVI melanoma; 22.2 µM in the experiment with M14 melanoma; 84.5 µM with MALME-3M melanoma; 12.2 µM in the experiment on SK-MEL-5 melanoma. For the same compound, the TGI with SNB-19 CNS and with UACC-257 melanoma was greater than 100 µM each time.

For the compound `O=C(CN/C=C\C(=O)c1cc(Cl)ccc1Cl)c1ccccc1`, the GI50 with HCT-116 colon is 21.2 µM; in the experiment on HS 578T breast, 25.7 µM; in the experiment on LOX IMVI melanoma it was 19.8 µM; in the experiment on M14 melanoma it was 24 µM; in the experiment on MALME-3M melanoma, 25.1 µM; in the experiment on SK-MEL-5 melanoma, 18.1 µM. In addition, the figures for the GI50 in the experiment on SNB-19 CNS and in the experiment on UACC-257 melanoma were 47.4 µM and 24.7 µM, respectively. Further, the TGI in the experiment with HCT-116 colon was 43.1 µM; with HS 578T breast it was 61.3 µM; in the experiment on LOX IMVI melanoma, 35.1 µM; in the experiment on M14 melanoma, 59.6 µM; with MALME-3M melanoma, 78.3 µM; with SK-MEL-5 melanoma it was 33.7 µM. The values for the concentration for total growth inhibition (TGI) in the experiment on SNB-19 CNS and in the experiment with UACC-257 melanoma were greater than 100 µM and 61.9 µM, respectively.

Take `Cc1cc(Cl)ccc1Nc1nc(C(F)(F)F)ccc1C(=O)N/N=C/c1c(Cl)cccc1Cl`: the GI50 in the experiment on HCT-116 colon was 0.287 µM; with HS 578T breast, 0.63 µM; in the experiment on LOX IMVI melanoma, 0.257 µM; with M14 melanoma it was 0.536 µM; with MALME-3M melanoma, 0.494 µM; in the experiment on SK-MEL-5 melanoma, 0.573 µM. Also, the figures for the GI50 in the experiment with SNB-19 CNS and with UACC-257 melanoma were 0.683 µM and 0.393 µM, respectively. In addition, the TGI with HS 578T breast is greater than 30 µM; in the experiment on LOX IMVI melanoma it was greater than 100 µM; in the experiment with M14 melanoma it was greater than 100 µM; in the experiment on MALME-3M melanoma, 2.5 µM; in the experiment with SK-MEL-5 melanoma it was 2.44 µM; with SNB-19 CNS it was greater than 56.6 µM. The same compound showed a TGI in the experiment with UACC-257 melanoma greater than 100 µM.

Turning to `OCCCNC(=S)Nc1ccc(-c2nc3ccccc3s2)cc1`, the GI50 was 19.9 µM in the experiment on HCT-116 colon; 33 µM in the experiment with HS 578T breast; 17.9 µM in the experiment with LOX IMVI melanoma; 23.3 µM in the experiment on M14 melanoma; 19.3 µM in the experiment on MALME-3M melanoma; 20.9 µM in the experiment with SK-MEL-5 melanoma. Further, the GI50 is 32.2 µM in the experiment on SNB-19 CNS and 27.1 µM with UACC-257 melanoma. The TGI in the experiment on HCT-116 colon is 46.2 µM; in the experiment on HS 578T breast, greater than 100 µM; in the experiment with LOX IMVI melanoma, 38.2 µM; in the experiment with M14 melanoma it was 49 µM; in the experiment on MALME-3M melanoma, 52.7 µM; in the experiment with SK-MEL-5 melanoma, 47.1 µM. Also, the results for the TGI in the experiment with SNB-19 CNS and in the experiment with UACC-257 melanoma were greater than 100 µM and 51.9 µM, respectively.

In the case of `Cn1cc(C2=C(c3cccc(NCC(O)CO)c3)C(=O)NC2=O)c2cc(Cl)ccc21` (configuration not stated), the GI50 in the experiment on HCT-116 colon was 2.4 µM; with HS 578T breast, 0.214 µM; in the experiment with LOX IMVI melanoma, 3.05 µM; in the experiment with M14 melanoma, 6.59 µM; in the experiment with MALME-3M melanoma, 7.84 µM; in the experiment on SK-MEL-5 melanoma, 3.32 µM. The GI50 in the experiment with SNB-19 CNS is 7.28 µM; in the experiment on UACC-257 melanoma, 5.51 µM. Besides, the TGI was greater than 25 µM with HCT-116 colon; 5.77 µM with HS 578T breast; 15.1 µM in the experiment with LOX IMVI melanoma; 18.4 µM with M14 melanoma; 14.8 µM in the experiment on MALME-3M melanoma; 7.14 µM with SK-MEL-5 melanoma. The TGI in the experiment with SNB-19 CNS was 19.6 µM; with UACC-257 melanoma it was 15.4 µM.

As to `N=C(N)c1ccc(-c2ccc(-c3ccco3)o2)cc1F`, the GI50 in the experiment with HCT-116 colon is 1.69 µM; in the experiment with HS 578T breast, 1.53 µM; in the experiment with LOX IMVI melanoma it was 1.6 µM; in the experiment with M14 melanoma, 1.88 µM; with MALME-3M melanoma, 1.74 µM; in the experiment on SK-MEL-5 melanoma, 1.64 µM. Besides, the figures for the GI50 in the experiment with SNB-19 CNS and in the experiment with UACC-257 melanoma were 2.48 µM and 1.59 µM, respectively. Moreover, the TGI in the experiment on HCT-116 colon came out at 3.49 µM; in the experiment on HS 578T breast it was 4.7 µM; in the experiment with LOX IMVI melanoma, 3.05 µM; with M14 melanoma, 3.76 µM; in the experiment with MALME-3M melanoma it was 3.38 µM; in the experiment on SK-MEL-5 melanoma, 3.04 µM. Also, the TGI in the experiment on SNB-19 CNS amounted to 13.4 µM; in the experiment with UACC-257 melanoma, 3.08 µM.
